# Biological target: T1, p101/p110γ protein (PI3Kγ) (Homo sapiens, UniProt P48736)
# T1 construct: HA; made in house; host or cells: Spodoptera frugiperda (Sf9) cells, baculovirus coinfection
# Assay: PI3Kγ in vitro kinase assay
# Assay type: biochemical
# Conditions: purified recombinant p101/p110γ with G protein β1/γ2 subunits, 20 μM ATP, 25 μM PIP2, 20 minutes at room temperature
# Method: Spodtera frugiperda cells, grown in ESF921 media, were coinfected with baculovirus expressing a glu-tagged pO1 and baculovirus expressing an HA-tagged p110γ, at a 3:1 ratio of p101 baculovirus to p110γ baculovirus. Sf9 cells were grown to 1×10^7 total cells/mL in 10 L bioreactors and harvested 48-72 hours post infection. Samples of infected cells were then tested for expression of p101/p110γ PI3 kinase by immunoprecipitation and Western Blot analysis methods (see below).
# To purify PI3Kγ, 4 volumes of room temperature hypotonic lysis buffer (1 mM MgCl2, 1 mM DTT, 5 mM EGTA, 1 mM Pefabloc, 0.5 μM aprotinin, 5 μM leupeptin, 2 μM pepstatin, 5 μM E64, pH 8) per gram of cell paste, was poured onto frozen cell pellets with stirring, then lysed in a nitrogen “bomb” at 400 psi (599HC T316, Parr Instrument Co, Moline, Ill.). NaCl was added to 150 mM, and sodium cholate was added to 1% and mixed for another 45 minutes. The lysates were clarified by centrifugation for 25 minutes at 14,000 rpm. The lysates were then loaded over anti-glu-linked Protein-G Sepaharose beads (Covance Research Products, Richmond, Calif.) using 20 mL resin/50 g cell paste. The column was washed with 15 volumes of wash buffer (1 mM DTT, 0.2 mM EGTA, 1 mM Pefabloc, 0.5 μM aprotinin, 5 μM leupeptin, 2 μM pepstatin, 5 μM E64, 150 mM NaCl, 1% sodium cholate, pH 8). PI3Kγ was eluted with 6 column volumes of wash buffer that contain 100 μg/mL of a peptide that competes for binding of the glu tag. The column fractions with the eluted protein (determined by taking OD280 readings) were collected and dialyzed in 0.2 mM EGTA, 1 mM DTT, 1 mM Pefabloc, 5 μM leupeptin, 0.5% sodium cholate, 150 mM NaCl, and 50% glycerol, pH 8. The fractions were stored at −80° C. until further use.
# Spodtera frugiperda cells were coinfected with baculovirus expressing a glu-tagged G protein β1 and baculovirus expressing a G protein β2, at a 1:1 ratio of glu-tagged G protein β1 baculovirus to G protein β2 baculovirus. Sf9 cells are grown in 10 L bioreactors and harvested 48-72 hours post infection. Samples of infected cells were tested for G protein β1/β2 expression by Western Blot analysis, as described below. Cell lysates were homogenized and loaded onto a column of glu-tagged beads as in Biological Example 1 and competed off the column with a glu peptide and processed as described in Biological Example 1.
# The inhibitory properties of the compounds in Table 1 were assayed in an in vitro PI3K assay. In a 96-well polypropylene plate, each well was spotted with 2 μL of 50 times the desired final concentration of compound in DMSO. Purified recombinant p101/p110γ protein (0.03 μg; ˜2.7 nM) and G protein β1/γ2 subunits (0.09 μg; ˜57.7 nM) for each reaction was combined in the assay buffer (30 mM HEPES, 100 mM NaCl, 1 mM EGTA, and 1 mM DTT). ATP and [γ-^32P-ATP] (0.09 μCi) were added to this mixture so that the final ATP concentration in the reaction was 20 μM. Lipid micelles were formed by sonicating phosphatidylinositol4,5-diphosphate (PIP2), phosphatidylethanolamine (PE), and Na-cholate in the assay buffer for 10 minutes, adding MgCl2 and incubating on ice for 20 minutes, for final concentrations of 25 μM PIP2, 300 μM PE, 0.02% Na-cholate, and 10 mM MgCl2 in the reaction. The reactions were started by adding equal volumes lipid and enzyme mixture in a total volume of 50 μL, allowed to run for 20 minutes at room temperature, and stopped with 100 μL 75 mM H3PO4. The lipid product was transderred to a glass fiber filter plate and washed with 75 mM H3PO4 severa; times. The presence of radioactive lipid product (PIP3) was measured by adding Wallac Optiphase mix to each well and counting in a Wallac 1450 Trilux plate reader (perkinElmer Life Sciences Inc., Boston, Mass. 02118). The IC50 for each compound tested is reported in μM in Table 1: […]
# T1 sequence (P48736 whole entry, species assumed): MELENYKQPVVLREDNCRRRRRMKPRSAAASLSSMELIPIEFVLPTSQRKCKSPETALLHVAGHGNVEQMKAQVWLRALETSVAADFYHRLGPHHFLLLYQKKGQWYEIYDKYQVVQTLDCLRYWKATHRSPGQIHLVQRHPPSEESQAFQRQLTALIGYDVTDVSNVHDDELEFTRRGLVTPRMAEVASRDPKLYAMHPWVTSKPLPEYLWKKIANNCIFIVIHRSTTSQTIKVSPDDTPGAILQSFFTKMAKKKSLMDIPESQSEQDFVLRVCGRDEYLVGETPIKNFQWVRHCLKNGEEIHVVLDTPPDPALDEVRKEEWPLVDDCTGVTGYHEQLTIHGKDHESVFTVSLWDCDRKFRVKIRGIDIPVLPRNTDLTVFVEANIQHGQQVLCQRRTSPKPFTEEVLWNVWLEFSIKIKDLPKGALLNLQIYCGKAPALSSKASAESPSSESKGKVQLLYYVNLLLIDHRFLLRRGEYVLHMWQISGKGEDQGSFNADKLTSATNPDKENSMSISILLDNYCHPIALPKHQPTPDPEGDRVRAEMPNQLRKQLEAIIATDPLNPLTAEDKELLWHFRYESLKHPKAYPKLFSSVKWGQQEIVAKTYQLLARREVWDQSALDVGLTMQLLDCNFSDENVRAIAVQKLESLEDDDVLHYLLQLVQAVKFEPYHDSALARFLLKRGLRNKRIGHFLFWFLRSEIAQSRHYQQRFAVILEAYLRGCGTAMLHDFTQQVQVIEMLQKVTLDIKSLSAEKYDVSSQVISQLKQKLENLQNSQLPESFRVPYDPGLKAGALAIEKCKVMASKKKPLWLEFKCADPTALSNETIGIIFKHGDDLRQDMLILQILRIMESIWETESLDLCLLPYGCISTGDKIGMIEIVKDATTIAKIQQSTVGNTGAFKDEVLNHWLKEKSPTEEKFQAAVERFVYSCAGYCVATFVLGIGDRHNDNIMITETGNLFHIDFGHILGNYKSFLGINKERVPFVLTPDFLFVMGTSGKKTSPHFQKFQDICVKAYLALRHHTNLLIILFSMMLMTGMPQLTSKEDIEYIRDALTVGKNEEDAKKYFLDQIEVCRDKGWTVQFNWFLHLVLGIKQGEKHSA
# T1 sequence (Q8WYR1 whole entry partner, species assumed): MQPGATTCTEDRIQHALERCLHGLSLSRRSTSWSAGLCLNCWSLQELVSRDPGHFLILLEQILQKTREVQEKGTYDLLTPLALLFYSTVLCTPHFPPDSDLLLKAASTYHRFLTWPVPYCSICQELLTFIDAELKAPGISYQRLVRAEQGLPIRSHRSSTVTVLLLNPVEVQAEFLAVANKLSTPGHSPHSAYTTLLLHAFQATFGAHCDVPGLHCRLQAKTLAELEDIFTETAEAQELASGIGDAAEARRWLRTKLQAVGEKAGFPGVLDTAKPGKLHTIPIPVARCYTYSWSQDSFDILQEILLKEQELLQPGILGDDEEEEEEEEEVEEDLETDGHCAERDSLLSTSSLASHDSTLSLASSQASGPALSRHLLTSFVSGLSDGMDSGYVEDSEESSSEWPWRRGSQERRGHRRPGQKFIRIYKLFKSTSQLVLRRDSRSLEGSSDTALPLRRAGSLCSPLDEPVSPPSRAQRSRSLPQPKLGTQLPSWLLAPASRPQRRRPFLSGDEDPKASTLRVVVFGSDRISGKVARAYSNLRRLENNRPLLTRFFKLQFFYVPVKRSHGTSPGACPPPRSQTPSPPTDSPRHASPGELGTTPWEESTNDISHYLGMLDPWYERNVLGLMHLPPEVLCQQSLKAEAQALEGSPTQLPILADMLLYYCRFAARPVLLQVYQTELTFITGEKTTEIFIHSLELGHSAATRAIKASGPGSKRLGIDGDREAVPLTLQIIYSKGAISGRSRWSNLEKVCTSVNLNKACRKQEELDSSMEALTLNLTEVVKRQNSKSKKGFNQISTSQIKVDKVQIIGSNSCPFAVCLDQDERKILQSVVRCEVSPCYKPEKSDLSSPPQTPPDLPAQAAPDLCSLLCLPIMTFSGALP
row,IC50 [nM],SMILES
1,92,"COc1ccc2sc(C(=O)Nc3nnn[nH]3)c(SCC3CCCCC3)c2c1 [Example 1, 3-Cyclohexylmethylsulfanyl-5-methoxy-benzo[b]thiophene-2-carboxylic acid (1H-tetrazol-5-yl)-amide]"
2,3810,"COc1cc2sc(C(=O)Nc3nnn[nH]3)c(SCC3CCCCC3)c2cc1OC [Example 2, 3-cyclohexylmethylsulfanyl-5,6-dimethoxy-benzo[b]thiophene-2-carboxylic acid (1H-tetrazol-5-yl)-amide]"
3,1190,"COc1ccc2sc(C(=O)Nc3nnn[nH]3)c(SC3CCCC3)c2c1 [Example 3, 3-cyclopentylsulfanyl-5-methoxy-benzo[b]thiophene-2-carboxylic acid (1H-tetrazol-5-yl)-amide]"
4,382,"COc1ccc2sc(C(=O)Nc3nnn[nH]3)c(SC3CCCCC3)c2c1 [Example 4, 3-cyclohexylsulfanyl-5-methoxy-benzo[b]thiophene-2-carboxylic acid (1H-tetrazol-5-yl)-amide]"
5,249,"COc1cc2sc(C(=O)Nc3nnn[nH]3)c(SC3CCCC3)c2cc1OC [Example 5, 3-cyclopentylsulfanyl-5,6-dimethoxy-benzo[b]thiophene-2-carboxylic acid (1H-tetrazol-5-yl)-amide]"
6,121,"COc1cc2sc(C(=O)Nc3nnn[nH]3)c(SC3CCCCC3)c2cc1OC [Example 6, 3-Cyclohexylsulfanyl-5,6-dimethoxy-benzo[b]thiophene-2-carboxylic acid (1H-tetrazol-5-yl)-amide]"
7,118,"COc1cc2sc(C(=O)Nc3nnn[nH]3)c(SC3CCCC3)c2cc1C [Example 7, 3-Cyclopentylsulfanyl-6-methoxy-5-methyl-benzo[b]thiophene-2-carboxylic acid (1H-tetrazol-5-yl)-amide]"
8,47,"COc1cc2sc(C(=O)Nc3nnn[nH]3)c(SC3CCCCC3)c2cc1C [Example 8, 3-Cyclohexylsulfanyl-6-methoxy-5-methyl-benzo[b]thiophene-2-carboxylic acid (1H-tetrazol-5-yl)-amide]"
9,2130,"CCOc1ccc2sc(C(=O)Nc3nnn[nH]3)c(SC3CCCC3)c2c1 [Example 9, 3-Cyclopentylsulfanyl-5-ethoxy-benzo[b]thiophene-2-carboxylic acid (1H-tetrazol-5-yl)-amide]"
10,1550,"CCOc1ccc2sc(C(=O)Nc3nnn[nH]3)c(SC3CCCCC3)c2c1 [Example 10, 3-Cyclohexylsulfanyl-5-ethoxy-benzo[b]thiophene-2-carboxylic acid (1H-tetrazol-5-yl)-amide]"
11,35,"COc1cc2c(SC3CCCCC3)c(C(=O)Nc3nnn[nH]3)sc2cc1C [Example 11, 3-Cyclohexylsulfanyl-5-methoxy-6-methyl-benzo[b]thiophene-2-carboxylic acid (1H-tetrazol-5-yl)-amide]"
12,495,"COCc1cc2sc(C(=O)Nc3nnn[nH]3)c(SC3CCCCC3)c2cc1OC [Example 12, 3-Cyclohexylsulfanyl-5-methoxy-6-methoxymethyl-benzo[b]thiophene-2-carboxylic acid (1H-tetrazol-5-yl)-amide]"
13,175,"CCOCc1cc2sc(C(=O)Nc3nnn[nH]3)c(SC3CCCCC3)c2cc1OC [Example 13, 3-Cyclohexylsulfanyl-6-ethoxymethyl-5-methoxy-benzo[b]thiophene-2-carboxylic acid (1H-tetrazol-5-yl)-amide]"
14,640,"COc1cc2c(SC3CCCCC3)c(C(=O)Nc3nnn[nH]3)sc2cc1COCc1ccccc1 [Example 14, 6-Benzyloxymethyl-3-cyclohexylsulfanyl-5-methoxy-benzo[b]thiophene-2-carboxylic acid (1H-tetrazol-5-yl)-amide]"
15,243,"COc1cc2sc(C(=O)Nc3nnn[nH]3)c(SCC3CC3)c2cc1OC [Example 15, 3-Cyclopropylmethylsulfanyl-5,6-dimethoxy-benzo[b]thiophene-2-carboxylic acid (1H-tetrazol-5-yl)-amide]"

# Reference: patent US20040248954A1, “Cycloalkylsulfanyl substituted benzo[b]thiophenes as therapeutic agents” (priority 2003, published 2004)
